Data reported in US8846698B2, “Pyrrolo[2,3-d]pyrimidine tropomysin-related kinase inhibitors” (Pfizer Limited, priority 2011, dated 2014).

Tests used:
TRKB = TRKB (Homo sapiens (Human), UniProt Q16620); experiment: cell-based; conditions: TrkB cell potency, TRKB PathHunter cell line
Protocol: (§1) After the Detection Reagent addition, plates are covered and incubated at room temperature for 60 minutes. […] Test compound data are expressed as percentage inhibition defined by HPE and ZPE values for each plate. Percentage inhibition in the presence of test compound is plotted against compound concentration on a log scale to determine an IC50 from the resultant sigmoid curve. Cell Based Assays were carried out using Cell lines from DiscoveRx utilising their PathHunter technology and reagents in an antagonist assay:
(§2) The assays are based upon DiscoveRx's proprietary Enzyme Fragment Complementation (EFC) technology. In the case of the TRK cell lines, the enzyme acceptor (EA) protein is fused to a SH2 protein and the TRK receptor of interest has been tagged with a Prolink tag.
(§3) Upon neurotrophin binding, the TRK receptor becomes phosphorylated, and the tagged SH2 protein binds.
(§4) This means that the IC50 is a good measure of affinity and should be unaffected by concentration neurotrophin stimulant.
(§5) Cryopreserved PathHunter cells are used from either in-house produced batches or bulk batches bought directly from DiscoveRx. Cryopreserved cells are resuscitated, spun 1000 rpm for 4 min to remove freezing media, and resuspended in MEM+0.5% horse serum (both Invitrogen) to 5e^5 cells/ml. The cells are then plated using a Multidrop into Greiner white tissue culture treated plates at 20 ul/well and incubated for 24 h at 37° C., 5% CO2, high humidity. On the day of the assay, the cell plates are allowed to cool to room temperature for 30 min prior to the assay.
(§6) Plates containing 1 ul of serially diluted compound, standard and HPE/ZPE are diluted 1/66 in assay buffer (PBS minus Ca^2+, minus Mg^2+ with 0.05% pluronic F127) using a Wellmate. […] The plates are left at room temperature for a further 2 hours before addition of 10 ul of the DiscoveRx PathHunter detection reagent (made up by adding 1 part Galacton Star, 5 parts Emerald II and 19 parts Cell Assay Buffer as per the manufacturer's instructions).
(§7) After reagent addition, plates are covered and incubated at room temperature for 60 minutes. Luminescence signal is read using an Envision. Test compound data are expressed as percentage inhibition defined by HPE and ZPE values for each plate. Percentage inhibition in the presence of test compound is plotted against compound concentration on a log scale to determine an […] from the resultant sigmoid curve.

TRKA [1] = biological target: T1, TRKA (Homo sapiens (Human), UniProt P04629); experiment: Cell based DiscoveRx PathHunter antagonist assay, TRKA cell line; conditions: read-out: TrkA cell potency
Protocol: as §1, §2, §3, §4, §5, §6, §7
Target sequence in this assay (P04629 33-796): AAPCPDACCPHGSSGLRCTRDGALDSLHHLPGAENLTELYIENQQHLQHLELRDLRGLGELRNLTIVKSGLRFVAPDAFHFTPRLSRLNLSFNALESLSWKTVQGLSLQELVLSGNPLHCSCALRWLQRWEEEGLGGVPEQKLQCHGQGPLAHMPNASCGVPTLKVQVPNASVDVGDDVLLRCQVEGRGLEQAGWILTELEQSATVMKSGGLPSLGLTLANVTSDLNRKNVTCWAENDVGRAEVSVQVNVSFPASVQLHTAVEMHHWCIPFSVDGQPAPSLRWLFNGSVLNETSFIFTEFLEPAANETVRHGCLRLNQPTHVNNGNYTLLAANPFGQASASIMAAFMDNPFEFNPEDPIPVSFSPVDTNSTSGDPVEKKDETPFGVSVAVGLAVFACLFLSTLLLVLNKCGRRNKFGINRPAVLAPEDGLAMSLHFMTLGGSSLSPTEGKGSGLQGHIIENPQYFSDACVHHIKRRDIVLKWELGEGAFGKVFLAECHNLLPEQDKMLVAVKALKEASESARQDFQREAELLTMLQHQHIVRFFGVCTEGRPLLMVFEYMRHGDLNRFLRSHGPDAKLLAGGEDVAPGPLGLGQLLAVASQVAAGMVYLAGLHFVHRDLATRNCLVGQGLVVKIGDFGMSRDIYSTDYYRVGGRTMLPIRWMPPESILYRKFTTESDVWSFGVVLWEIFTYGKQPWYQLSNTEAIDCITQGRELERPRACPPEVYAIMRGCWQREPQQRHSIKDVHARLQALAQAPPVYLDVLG

TRKA [2] = biological target: T1, TRKA; experiment: Isolated TRK enzyme assay (HTRF KinEASE-TK), TRKA; type: biochemical
Target sequence in this assay (P04629 441-796): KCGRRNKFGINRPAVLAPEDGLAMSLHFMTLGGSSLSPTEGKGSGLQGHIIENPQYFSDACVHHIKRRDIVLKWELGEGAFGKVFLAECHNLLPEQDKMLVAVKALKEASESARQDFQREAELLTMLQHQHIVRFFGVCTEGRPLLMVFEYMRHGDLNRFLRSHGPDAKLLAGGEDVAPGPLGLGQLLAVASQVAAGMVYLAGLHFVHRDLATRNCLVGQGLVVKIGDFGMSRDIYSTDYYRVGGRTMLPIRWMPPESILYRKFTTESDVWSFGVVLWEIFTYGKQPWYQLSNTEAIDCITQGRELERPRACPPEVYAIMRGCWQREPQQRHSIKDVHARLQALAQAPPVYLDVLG

Chain of TRKB (Q16620 32-822 limits assumed): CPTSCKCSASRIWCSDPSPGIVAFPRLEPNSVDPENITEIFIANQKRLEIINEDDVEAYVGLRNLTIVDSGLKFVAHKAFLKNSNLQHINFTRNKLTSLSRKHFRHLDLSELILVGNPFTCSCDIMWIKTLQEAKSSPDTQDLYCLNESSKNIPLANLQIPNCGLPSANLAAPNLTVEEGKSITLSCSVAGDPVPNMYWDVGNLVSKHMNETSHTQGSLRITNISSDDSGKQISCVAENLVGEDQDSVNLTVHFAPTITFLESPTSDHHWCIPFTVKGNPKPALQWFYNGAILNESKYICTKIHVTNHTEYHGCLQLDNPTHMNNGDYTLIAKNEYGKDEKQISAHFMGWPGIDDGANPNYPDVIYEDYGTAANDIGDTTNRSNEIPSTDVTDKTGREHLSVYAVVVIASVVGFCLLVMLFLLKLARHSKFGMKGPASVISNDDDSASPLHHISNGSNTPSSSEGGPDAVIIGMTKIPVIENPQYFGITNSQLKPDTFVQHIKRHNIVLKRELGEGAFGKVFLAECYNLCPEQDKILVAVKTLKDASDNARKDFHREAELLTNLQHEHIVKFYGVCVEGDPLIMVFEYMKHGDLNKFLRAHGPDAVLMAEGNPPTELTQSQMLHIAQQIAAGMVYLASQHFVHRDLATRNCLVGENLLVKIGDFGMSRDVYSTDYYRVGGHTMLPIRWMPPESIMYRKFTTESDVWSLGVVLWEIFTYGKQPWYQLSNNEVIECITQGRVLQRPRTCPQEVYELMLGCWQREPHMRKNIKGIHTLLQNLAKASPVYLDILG

`CC(CO)n1cc(C(=O)c2cncc(NC(=O)Cc3ccc(F)cn3)c2)c2cnc(N)nc21` (single isomer, unassigned) [Example 37, N-(5-{[2-amino-7-(2-hydroxy-1-methylethyl)-7H-pyrrolo[2,3-d]pyrimidin-5-yl]carbonyl}pyridin-3-yl)-2-(5-fluoropyridin-2-yl)acetamide] was tested, and the IC50 (TRKB) was 571 nM, the IC50 (TRKA [1]) was 2250 nM and the IC50 (TRKA [2]; isolated TRKA enzyme, read-out: TrkA enzyme potency) was 67 nM.

With `CC(C)n1cc(C(=O)c2cncc(NC(=O)Cc3cn(C4CC4)nc3C(F)(F)F)c2)c2cncnc21` [Example 352, 2-(1-Cyclopropyl-3-trifluoromethyl-1H-pyrazol-4-yl)-N-[5-(7-isopropyl-7H-pyrrolo[2,3-d]pyrimidine-5-carbonyl)-pyridin-3-yl]-acetamide] the IC50 (TRKA [2]; read-out: Trka enzyme (IC50)) was 62.6 nM.

For `N#Cc1ccc(CC(=O)Nc2cncc(C(=O)c3cn(C45CC(C4)C5)c4nc(N)ncc34)c2)cc1` [Example 582, N-[5-(2-Amino-7-bicyclo[1.1.1]pent-1-yl-7H-pyrrolo[2,3-d]pyrimidine-5-carbonyl)-pyridin-3-yl]-2-(4-cyano-phenyl)-acetamide], the IC50 (TRKA [2]; read-out: Trka enzyme (IC50)) was 9.79 nM.

Compound `Cn1cc(C(=O)c2cncc(NC(=O)CCc3ccccc3F)c2)c2cncnc21` [Example 327, 3-(2-fluorophenyl)-N-{5-[(7-methyl-7H-pyrrolo[2,3-d]pyrimidin-5-yl)carbonyl]pyridin-3-yl}propanamide] has an IC50 (TRKA [2]; read-out: Trka enzyme (IC50)) of 3100 nM.

`CC(C)n1cc(C(=O)c2cncc(NC(=O)Cc3cn4cc(Cl)ccc4n3)c2)c2cncnc21` [Example 126, 2-(6-chloroimidazo[1,2-a]pyridin-2-yl)-N-{5-[(7-isopropyl-7H-pyrrolo[2,3-d]pyrimidin-5-yl)carbonyl]pyridin-3-yl}acetamide] was tested, and the IC50 (TRKA [2]; read-out: Trka enzyme (IC50)) was 95.7 nM.

Compound `CC(C)n1cc(C(=O)c2cncc(NC(=O)c3ccc(C(F)(F)F)cc3)c2)c2cncnc21` [Example 345, N-(5-{[7-(propan-2-yl)-7H-pyrrolo[2,3-d]pyrimidin-5-yl]carbonyl}pyridin-3-yl)-4-(trifluoromethyl)benzamide] has an IC50 (TRKA [2]; read-out: Trka enzyme (IC50)) of 362 nM.

Compound `CC(C)n1cc(C(=O)c2cncc(NC(=O)c3ccc4nccn4c3)c2)c2cncnc21` [Example 423, Imidazo[1,2-a]pyridine-6-carboxylicacid [5-(7-isopropyl-7H-pyrrolo[2,3-d]pyrimidine-5-carbonyl)-pyridin-3-yl]amide] has an IC50 (TRKA [2]; read-out: Trka enzyme (IC50)) of 1330 nM.

For `O=C(Nc1cncc(C(=O)c2cn(C(CO)CO)c3ncncc23)c1)c1cccc(OC(F)(F)F)c1` [Example 271, N-(5-(7-(1,3-dihydroxypropan-2-yl)-7H-pyrrolo[2,3-d]pyrimidine-5-carbonyl)pyridin-3-yl)-3-(trifluoromethoxy)benzamide], the IC50 (TRKA [2]; read-out: Trka enzyme (IC50)) was 39 nM.

`Cc1ccc(CCC(=O)Nc2cncc(C(=O)c3cn(C)c4ncncc34)c2)cc1` [Example 330, 3-(4-methylphenyl)-N-{5-[(7-methyl-7H-pyrrolo[2,3-d]pyrimidin-5-yl)carbonyl]pyridin-3-yl}propanamide] was tested, and the IC50 (TRKA [2]; read-out: Trka enzyme (IC50)) was 3100 nM.

With `CC(C)c1cn(CC(=O)Nc2cncc(C(=O)c3cn([C@H](C)CO)c4ncncc34)c2)nn1` [Example 206, N-[5-({7-[(1R)-2-hydroxy-1-methylethyl]-7H-pyrrolo[2,3-d]pyrimidin-5-yl}carbonyl)pyridin-3-yl]-2-(4-isopropyl-1H-1,2,3-triazol-1-yl)acetamide] the IC50 (TRKA [2]; read-out: Trka enzyme (IC50)) was 123 nM.

Work on `Cc1cc(CC(=O)Nc2cncc(C(=O)c3cn(C(C)C)c4ncncc34)c2)[nH]n1` [Example 134, N-{5-[(7-isopropyl-7H-pyrrolo[2,3-d]pyrimidin-5-yl)carbonyl]pyridin-3-yl}-2-(3-methyl-1H-pyrazol-5-yl)acetamide] yielded an IC50 (TRKA [2]; read-out: Trka enzyme (IC50)) of 330 nM.

Work on `Cc1cccc2cc(C(=O)Nc3cncc(C(=O)c4cn(C(C)C)c5ncncc45)c3)nn12` [Example 476, 7-Methyl-pyrazolo[1,5-a]pyridine-2-carboxylic acid [5-(7-isopropyl-7H-pyrrolo[2,3-d]pyrimidine-5-carbonyl)-pyridin-3-yl]-amide] yielded an IC50 (TRKA [2]; read-out: Trka enzyme (IC50)) of 65 nM.

For `Cc1[nH]c2ccc(F)cc2c1CC(=O)Nc1cncc(C(=O)c2cn(C(C)C)c3ncncc23)c1` [Example 125, 2-(5-fluoro-2-methyl-1H-indol-3-yl)-N-{5-[(7-isopropyl-7H-pyrrolo[2,3-d]pyrimidin-5-yl)carbonyl]pyridin-3-yl}acetamide], the IC50 (TRKA [2]; read-out: Trka enzyme (IC50)) was 148 nM.

`Cn1cc(C(=O)c2cncc(NC(=O)Cc3ccc(F)c(F)c3)c2)c2cncnc21` [Example 195, 2-(3,4-difluorophenyl)-N-{5-[(7-methyl-7H-pyrrolo[2,3-d]pyrimidin-5-yl)carbonyl]yridine-3-yl}acetamide] gave an IC50 (TRKA [2]; read-out: Trka enzyme (IC50)) of 835 nM.

`CC(C)(C)n1cc(C(=O)c2cncc(NC(=O)Cn3cc(C4CC4)cn3)c2)c2cnc(N)nc21` [Example 577, N-[5-(2-Amino-7-tert-butyl-7H-pyrrolo[2,3-d]pyrimidine-5-carbonyl)-pyridin-3-yl]-2-(4-cyclopropyl-pyrazol-1-yl)-acetamide] gave an IC50 (TRKA [2]; read-out: Trka enzyme (IC50)) of 1.9 nM.

Compound `N#Cc1ccc(CC(=O)Nc2cncc(C(=O)c3c[nH]c4ncncc34)c2)cc1` [Example 570, 2-(4-Cyano-phenyl)-N-[5-(7H-pyrrolo[2,3-d]pyrimidine-5-carbonyl)-pyridin-3-yl]-acetamide] has an IC50 (TRKA [2]; read-out: Trka enzyme (IC50)) of 6970 nM.

`CC(C)n1cc(C(=O)c2cncc(NC(=O)COc3ccc(OC(F)(F)F)cc3)c2)c2cncnc21` [Example 348, N-(5-{[7-(propan-2-yl)-7H-pyrrolo[2,3-d]pyrimidin-5-yl]carbonyl}pyridin-3-yl)-2-[4-(trifluoromethoxy)phenoxy]acetamide] showed an IC50 (TRKA [2]; read-out: Trka enzyme (IC50)) of 36.6 nM.

With `CC(C)n1cc(C(=O)c2cncc(NC(=O)c3cnn4cccnc34)c2)c2cncnc21` [Example 474, Pyrazolo[1,5-a]pyrimidine-3-carboxylic acid [5-(7-isopropyl-7H-pyrrolo[2,3-d]pyrimidine-5-carbonyl)-pyridin-3-yl]-amide] the IC50 (TRKA [2]; read-out: Trka enzyme (IC50)) was 4420 nM.

In the case of `Nc1ncc2c(C(=O)c3cncc(NC(=O)Cn4cc(C(F)(F)F)nn4)c3)cn(C34CC(C3)C4)c2n1` [Example 581, N-[5-(2-Amino-7-bicyclo[1.1.1]pent-1-yl-7H-pyrrolo[2,3-d]pyrimidine-5-carbonyl)-pyridin-3-yl]-2-(4-trifluoromethyl-[1,2,3]triazol-1-yl)-acetamide], the IC50 (TRKA [2]; read-out: Trka enzyme (IC50)) is reported as 3.21 nM.

Compound `CC(C)n1cc(C(=O)c2cncc(NC(=O)Cc3ccn(-c4ccccc4)c3)c2)c2cncnc21` [Example 140, N-{5-[(7-isopropyl-7H-pyrrolo[2,3-d]pyrimidin-5-yl)carbonyl]pyridin-3-yl}-2-(1-phenyl-1H-pyrrol-3-yl)acetamide] has an IC50 (TRKA [2]; read-out: Trka enzyme (IC50)) of 219 nM.

`CC(C)n1cc(C(=O)c2cncc(NC(=O)c3coc(C4CC4)n3)c2)c2cncnc21` [Example 401, 2-Cyclopropyl-oxazole-4-carboxylic acid [5-(7-isopropyl-7H-pyrrolo[2,3-d]pyrimidine-5-carbonyl)-pyridin-3-yl]-amide] showed an IC50 (TRKA [2]; read-out: Trka enzyme (IC50)) of 132 nM.

Work on `Cc1sc2nc(CC(=O)Nc3cncc(C(=O)c4cn(C(C)C)c5ncncc45)c3)cn2c1C` [Example 362, 2-(2,3-Dimethyl-imidazo[2,1-b]thiazol-6-yl)-N-[5-(7-isopropyl-7H-pyrrolo[2,3-d]pyrimidine-5-carbonyl)-pyridin-3-yl]-acetamide] yielded an IC50 (TRKA [2]; read-out: Trka enzyme (IC50)) of 1910 nM.

With `CC(C)n1cc(C(=O)c2cncc(NC(=O)c3n[nH]c4ncccc34)c2)c2cncnc21` [Example 511, 1H-Pyrazolo[3,4-b]pyridine-3-carboxylic acid [5-(7-isopropyl-7H-pyrrolo[2,3-d]pyrimidine-5-carbonyl)-pyridin-3-yl]-amide] the IC50 (TRKA [2]; read-out: Trka enzyme (IC50)) was 144 nM.

`Cc1ccc(CC(=O)Nc2cncc(C(=O)c3cn(C(C)C)c4ncncc34)c2)cn1` [Example 154, N-{5-[(7-isopropyl-7H-pyrrolo[2,3-d]pyrimidin-5-yl)carbonyl]pyridin-3-yl}-2-(6-methylpyridin-3-yl)acetamide] showed an IC50 (TRKA [2]; read-out: Trka enzyme (IC50)) of 94.1 nM.

`Cn1cc(C(=O)c2cncc(NC(=O)Cc3cccc(SC(F)(F)F)c3)c2)c2cncnc21` [Example 185, N-{5-[(7-methyl-7H-pyrrolo[2,3-d]pyrimidin-5-yl)carbonyl]pyridin-3-yl}-2-{3-[(trifluoromethyl)thio]phenyl}acetamide] gave an IC50 (TRKA [2]; read-out: Trka enzyme (IC50)) of 67.4 nM.

`C[C@@H](CO)n1cc(C(=O)c2cncc(NC(=O)Cc3ccc(OC(F)F)cc3)c2)c2cncnc21` [Example 531, 2-(4-Difluoromethoxy-phenyl)-N-{5-[7-((S)-2-hydroxy-1-methyl-ethyl)-7H-pyrrolo[2,3-d]pyrimidine-5-carbonyl]-pyridin-3-yl}-acetamide] was tested, and the IC50 (TRKA [2]; read-out: Trka enzyme (IC50)) was 52.4 nM.

`CC(C)n1cc(C(=O)c2c[nH]c(=O)c(NC(=O)Cc3ccc(Cl)cc3)c2)c2cncnc21` [Example 589, 2-(4-chlorophenyl)-N-(2-oxo-5-{[7-(propan-2-yl)-7H-pyrrolo[2,3-d]pyrimidin-5-yl]carbonyl}-1,2-dihydropyridin-3-yl)acetamide] showed an IC50 (TRKA [2]; read-out: Trka enzyme (IC50)) of 31.3 nM.
